Columns and labels:
[1] = test system: sugar beet; assay: Test B pre/postemergence sugar beet; assay type: in vivo, Beta vulgaris; details: for Plant response rating, Sugarbeets: Postemergence
In short: (§1)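 Test chemicals in a non-phytotoxic solvent mixture with surfactant were sprayed preemergence onto planted seeds and postemergence onto plants 2 to 18 cm tall (1- to 4-leaf stage). After twelve to sixteen days in a greenhouse, injury was visually rated against untreated controls from 0 (no effect) to 10 (complete control).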

[2] = test system: velvetleaf; assay: Test B pre/postemergence velvetleaf; assay type: in vivo, Abutilon theophrasti; details: for Plant response rating, Velvetleaf: Postemergence
In short: as §1

[3] = test system: surinam grass; assay: Test B pre/postemergence surinam grass; assay type: in vivo, Brachiaria decumbens
In short: as §1

[4] = test system: morningglory; assay: Test B pre/postemergence morningglory; assay type: in vivo, Ipomoea hederacea
In short: as §1

[5] = test system: wild oat; assay: Test B pre/postemergence wild oat; assay type: in vivo, Avena fatua; details: for Plant response rating, Wild oats: Postemergence
In short: as §1

[6] = test system: wheat; assay: Test B pre/postemergence wheat; assay type: in vivo, Triticum aestivum; details: for Plant response rating, Wheat: Postemergence
In short: as §1

[7] = test system: pigweed; assay: Test B pre/postemergence pigweed; assay type: in vivo, Amaranthus retroflexus; details: for Plant response rating, Redroot pigweed: Postemergence; for Plant response rating, Redroot pigweed / Redroot pigweed plant response rating: scale of 0 to 10 where 0 is no effect and 10 is complete control
In short: as §1

[8] = test system: purple nutsedge; assay: Test B pre/postemergence purple nutsedge; assay type: in vivo, Cyperus rotundus
In short: as §1

[9] = test system: crabgrass; assay: Test B pre/postemergence crabgrass; assay type: in vivo, Digitaria sanguinalis
In short: as §1

[10] = test system: soybean; assay: Test B pre/postemergence soybean; assay type: in vivo, Glycine max; details: for Plant response rating, Soybean: Postemergence
In short: as §1

[11] = test system: rape; assay: Test B pre/postemergence rape; assay type: in vivo, Brassica napus
In short: as §1

[12] = test system: bedstraw; assay: Test B pre/postemergence bedstraw; assay type: in vivo, Galium aparine
In short: as §1

[13] = test system: cocklebur; assay: Test B pre/postemergence cocklebur; assay type: in vivo, Xanthium strumarium
In short: as §1

[14] = test system: corn; assay: Test B pre/postemergence corn; assay type: in vivo, Zea mays
In short: as §1

[15] = test system: blackgrass; assay: Test B pre/postemergence blackgrass; assay type: in vivo, Alopecurus myosuroides
In short: as §1

[16] = test system: giant foxtail; assay: Test B pre/postemergence giant foxtail; assay type: in vivo, Setaria faberii
In short: as §1

[17] = Rate 125 g/ha, scale of 0 to 10 where 0 is no effect and 10 is complete control
[18] = Rate 500 g/ha, scale of 0 to 10 where 0 is no effect and 10 is complete control
[19] = Preemergence, Rate 62 g/ha, scale 0 to 10 (0 no effect, 10 complete control)
[20] = Preemergence, Rate 125 g/ha, scale of 0 to 10 where 0 is no effect and 10 is complete control
[21] = Preemergence, Rate 500 g/ha, scale of 0 to 10 where 0 is no effect and 10 is complete control
[22] = Rate 250 g/ha, scale of 0 to 10 where 0 is no effect and 10 is complete control
[23] = Postemergence, Rate 62 g/ha, scale of 0 to 10, 0 is no effect, 10 is complete control
[24] = Postemergence, Rate 125 g/ha, scale of 0 to 10 where 0 is no effect and 10 is complete control
[25] = Postemergence, Rate 500 g/ha, scale of 0 to 10 where 0 is no effect and 10 is complete control
[26] = Rate 250 g/ha, Postemergence, scale of 0 to 10 where 0 is no effect and 10 is complete control

In the case of CC(C)N(C(=O)n1oc(=O)n(CCCCF)c1=O)c1ccccc1 [Compound 581], the “Plant response rating, Sugarbeets” value [1, 17] is reported as 5, the “Plant response rating, Sugarbeets” value [1, 18] is reported as 8 and the “Sugarbeets plant response rating” value [1, 19] is reported as 0. The “Sugarbeets plant response rating” value [1, 20] was 0, the “Sugarbeets plant response rating (0 to 10 scale)” value ([1]; Preemergence, Rate 250 g/ha) was 0 and the “Sugarbeets plant response rating” value [1, 21] was 9. The “Plant response rating, Sugarbeets” value [1, 22] was 7, the “Plant response rating, Velvetleaf” value [2, 17] was 4 and the “Plant response rating, Velvetleaf” value [2, 18] was 6. For the same compound, the “Velvetleaf plant response rating” value [2, 19] was 5, the “Velvetleaf plant response rating” value [2, 20] was 5 and the “Velvetleaf plant response rating (0 to 10 scale)” value ([2]; Preemergence, Rate 250 g/ha) was 5. The “Velvetleaf plant response rating” value [2, 21] was 10, the “Plant response rating, Velvetleaf” value [2, 22] was 6 and the “B. signalgrass plant response rating” value [3, 23] was 5. The “Plant response rating, B. signalgrass” value [3, 24] was 5, the “Plant response rating, B. signalgrass” value [3, 25] was 8 and the “B. signalgrass plant response rating” value [3, 19] was 0. The “B. signalgrass plant response rating” value [3, 20] was 0, the “B. signalgrass plant response rating (0 to 10 scale, 0 is no effect, 10 is complete control)” value ([3]; Preemergence, Rate 250 g/ha) was 2 and the “B. signalgrass plant response rating” value [3, 21] was 9. The “Plant response rating, B. signalgrass” value [3, 26] was 7, the “Morningglory plant response rating” value [4, 23] was 4 and the “Plant response rating, Morningglory” value [4, 24] was 8. The “Plant response rating, Morningglory” value [4, 25] was 10, the “Morningglory plant response rating” value [4, 19] was 0 and the “Morningglory plant response rating” value [4, 20] was 2. For the same compound, the “Morningglory plant response rating (0 to 10 scale)” value ([4]; Preemergence, Rate 250 g/ha) was 4, the “Morningglory plant response rating” value [4, 21] was 6 and the “Plant response rating, Morningglory” value [4, 26] was 7. For the same compound, the “Plant response rating, Wild oats” value [5, 17] was 5, the “Plant response rating, Wild oats” value [5, 18] was 5 and the “Wild oats plant response rating” value [5, 19] was 0. The “Wild oats plant response rating” value [5, 20] was 0, the “Wild oats plant response rating (0 to 10 scale)” value ([5]; Preemergence, Rate 250 g/ha) was 0 and the “Wild oats plant response rating” value [5, 21] was 8. The “Plant response rating, Wild oats” value [5, 22] was 5, the “Plant response rating, Wheat” value [6, 17] was 4 and the “Plant response rating, Wheat” value [6, 18] was 4. The “Wheat plant response rating” value [6, 19] was 0, the “Wheat plant response rating” value [6, 20] was 0 and the “Wheat plant response rating (0 to 10 scale)” value ([6]; Preemergence, Rate 250 g/ha) was 2. For the same compound, the “Wheat plant response rating” value [6, 21] was 5, the “Plant response rating, Wheat” value [6, 22] was 4 and the “Plant response rating, Redroot pigweed” value ([7]; Rate 125 g/ha) was 8. For the same compound, the “Plant response rating, Redroot pigweed” value ([7]; Rate 500 g/ha) was 9, the “Redroot pigweed plant response rating” value ([7]; Preemergence, Rate 125 g/ha) was 5 and the “Redroot pigweed plant response rating (0 to 10 scale)” value ([7]; Preemergence, Rate 250 g/ha) was 9. For the same compound, the “Redroot pigweed plant response rating” value ([7]; Preemergence, Rate 500 g/ha) was 10, the “Plant response rating, Redroot pigweed” value ([7]; Rate 250 g/ha) was 8 and the “Nutsedge plant response rating” value [8, 23] was 0. For the same compound, the “Nutsedge plant response rating” value [8, 19] was 0, the “Nutsedge plant response rating” value [8, 20] was 0 and the “Nutsedge plant response rating (0 to 10 scale)” value ([8]; Preemergence, Rate 250 g/ha) was 4. The “Nutsedge plant response rating” value [8, 21] was 8, the “Crabgrass plant response rating” value [9, 23] was 3 and the “Plant response rating, Crabgrass” value [9, 24] was 7. The “Plant response rating, Crabgrass” value [9, 25] was 9, the “Crabgrass plant response rating” value [9, 19] was 4 and the “Crabgrass plant response rating” value [9, 20] was 9. For the same compound, the “Crabgrass plant response rating (0 to 10 scale)” value ([9]; Preemergence, Rate 250 g/ha) was 8, the “Crabgrass plant response rating” value [9, 21] was 9 and the “Plant response rating, Crabgrass” value [9, 26] was 7. The “Plant response rating, Soybean” value [10, 17] was 4, the “Plant response rating, Soybean” value [10, 18] was 5 and the “Soybean plant response rating” value [10, 19] was 0. The “Soybean plant response rating” value [10, 20] was 0, the “Soybean plant response rating (0 to 10 scale)” value ([10]; Preemergence, Rate 250 g/ha) was 5 and the “Soybean plant response rating” value [10, 21] was 7. For the same compound, the “Plant response rating, Soybean” value [10, 22] was 4, the “Rape plant response rating” value [11, 23] was 0 and the “Plant response rating, Rape” value [11, 24] was 7. The “Plant response rating, Rape” value [11, 25] was 7, the “Rape plant response rating” value [11, 19] was 0 and the “Rape plant response rating” value [11, 20] was 0. The “Rape plant response rating (0 to 10 scale)” value ([11]; Preemergence, Rate 250 g/ha) was 2, the “Rape plant response rating” value [11, 21] was 7 and the “Plant response rating, Rape” value [11, 26] was 7. The “Bedstraw plant response rating” value [12, 23] was 0, the “Plant response rating, Bedstraw” value [12, 24] was 8 and the “Plant response rating, Bedstraw” value [12, 25] was 9. For the same compound, the “Bedstraw plant response rating” value [12, 19] was 8, the “Bedstraw plant response rating” value [12, 20] was 9 and the “Bedstraw plant response rating (0 to 10 scale)” value ([12]; Preemergence, Rate 250 g/ha) was 7. The “Bedstraw plant response rating” value [12, 21] was 9, the “Cocklebur plant response rating” value [13, 23] was 2 and the “Plant response rating, Cocklebur” value [13, 25] was 3. The “Cocklebur plant response rating” value [13, 19] was 0, the “Cocklebur plant response rating” value [13, 20] was 0 and the “Cocklebur plant response rating (0 to 10 scale)” value ([13]; Preemergence, Rate 250 g/ha) was 0. For the same compound, the “Cocklebur plant response rating” value [13, 21] was 0, the “Plant response rating, Cocklebur” value [13, 26] was 3 and the “Corn plant response rating” value [14, 23] was 2. The “Plant response rating, Corn” value [14, 24] was 4, the “Plant response rating, Corn” value [14, 25] was 6 and the “Corn plant response rating” value [14, 19] was 0. The “Corn plant response rating” value [14, 20] was 2, the “Corn plant response rating (0 to 10 scale)” value ([14]; Preemergence, Rate 250 g/ha) was 7 and the “Corn plant response rating” value [14, 21] was 9. The “Plant response rating, Corn” value [14, 26] was 5, the “Blackgrass plant response rating” value [15, 23] was 4 and the “Plant response rating, Blackgrass” value [15, 24] was 4. The “Plant response rating, Blackgrass” value [15, 25] was 4, the “Blackgrass plant response rating” value [15, 19] was 0 and the “Blackgrass plant response rating” value [15, 20] was 0. For the same compound, the “Blackgrass plant response rating (0 to 10 scale)” value ([15]; Preemergence, Rate 250 g/ha) was 0, the “Blackgrass plant response rating” value [15, 21] was 7 and the “Plant response rating, Blackgrass” value [15, 26] was 4. For the same compound, the “Giant foxtail plant response rating” value [16, 23] was 7, the “Plant response rating, Giant foxtail” value [16, 24] was 8 and the “Plant response rating, Giant foxtail” value [16, 25] was 9. The “Giant foxtail plant response rating” value [16, 19] was 4, the “Giant foxtail plant response rating” value [16, 20] was 10 and the “Giant foxtail plant response rating (0 to 10 scale)” value ([16]; Preemergence, Rate 250 g/ha) was 9. The “Giant foxtail plant response rating” value [16, 21] was 10 and the “Plant response rating, Giant foxtail” value [16, 26] was 8.
